Results reported in PubChem BioAssay AID743307 (Sanford-Burnham Center for Chemical Genomics, 2014).

Target: Low molecular weight phosphotyrosine protein phosphatase (Homo sapiens) (UniProt P24666)
Assay: inhibition of LMPTP-A enzymatic activity – biochemical, OMFP substrate, fluorescence intensity, set 2, dose response (AID 743307)
Settings: LMPTP-A enzyme, OMFP fluorogenic substrate

Chain of Low molecular weight phosphotyrosine protein phosphatase (Homo sapiens) (P24666 whole entry, looked up): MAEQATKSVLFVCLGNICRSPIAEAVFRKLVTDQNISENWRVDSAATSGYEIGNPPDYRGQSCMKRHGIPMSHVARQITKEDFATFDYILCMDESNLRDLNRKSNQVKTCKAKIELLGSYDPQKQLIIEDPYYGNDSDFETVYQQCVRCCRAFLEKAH

## COc1ccc(-c2cc(NCCCN3CCCCC3)c3ccccc3n2)cc1
  IC50: 1680 nM
